Measurements reported in ChEMBL document CHEMBL1201862, “PubChem BioAssay data set” (2004).
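48-hour exposure; five concentrations; linearly interpolated endpoints. Here, GI50 denotes the concentration required for 50% inhibition of growth.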 The source made the active and inactive calls. No stated cut-off is given here; in the data, active = GI50 up to about 1.1 µM and inactive = higher.

How the values were obtained:
Assay in all cases: growth of human tumour cells (NCI), 48 h
SF-295 = system: SF-295
ACHN = system: ACHN
RXF 393 = system: RXF 393
OVCAR-4 = system: OVCAR-4
CCRF-CEM = system: CCRF-CEM
HCT-116 = system: HCT-116
SK-MEL-2 = system: SK-MEL-2
LOX IMVI = system: LOX IMVI
NCI-H460 = system: NCI-H460
786-0 = system: 786-0
M14 = system: M14
SK-MEL-28 = system: SK-MEL-28
HL-60 = system: HL-60
HCT-15 = system: HCT-15
NCI-H23 = system: NCI-H23
SK-OV-3 = system: SK-OV-3
TK-10 = system: TK-10
COLO 205 = system: COLO 205
SN12C = system: SN12C
MOLT-4 = system: MOLT-4

| SMILES | GI50 (SF-295) | GI50 (ACHN) | GI50 (RXF 393) | GI50 (OVCAR-4) | GI50 (CCRF-CEM) | GI50 (HCT-116) | GI50 (SK-MEL-2) | GI50 (LOX IMVI) | GI50 (NCI-H460) | GI50 (786-0) | GI50 (M14) | GI50 (SK-MEL-28) | GI50 (HL-60) | GI50 (HCT-15) | GI50 (NCI-H23) | GI50 (SK-OV-3) | GI50 (TK-10) | GI50 (COLO 205) | GI50 (SN12C) | GI50 (MOLT-4) |
| --- | --- | --- | --- | --- | --- | --- | --- | --- | --- | --- | --- | --- | --- | --- | --- | --- | --- | --- | --- | --- |
| COc1cccc(/C=C2/S/C(=N/Nc3nc(C)c(C(C)=O)s3)NC2=O)c1O | 52.8 µM (inactive) | 22 µM (inactive) | 28.8 µM (inactive) | 30.3 µM (inactive) | 18.2 µM (inactive) | 30.7 µM (inactive) | 21.2 µM (inactive) | 31.7 µM (inactive) | 29.6 µM (inactive) | 27.8 µM (inactive) | 32.8 µM (inactive) | 39.7 µM (inactive) | 12.4 µM (inactive) | 26.2 µM | 35.3 µM (inactive) | 66.8 µM (inactive) | 27.6 µM (inactive) | 27.5 µM (inactive) | 31.7 µM (inactive) | – |
| N=C(N)NCC(N)C(=O)O (centres undefined) | > 100 µM (inactive) | > 100 µM (inactive) | > 100 µM (inactive) | > 100 µM (inactive) | – | > 100 µM (inactive) | > 100 µM (inactive) | > 100 µM (inactive) | > 100 µM (inactive) | > 100 µM (inactive) | > 100 µM (inactive) | > 100 µM (inactive) | > 100 µM (inactive) | > 100 µM | > 100 µM (inactive) | > 100 µM (inactive) | > 100 µM (inactive) | > 100 µM (inactive) | > 100 µM (inactive) | – |
| O=C(O)C(=C\c1ccc2c(c1)OCO2)/C(=C/c1ccc2c(c1)OCO2)C(=O)O | > 100 µM (inactive) | – | > 100 µM (inactive) | > 100 µM (inactive) | > 100 µM (inactive) | > 100 µM (inactive) | > 100 µM (inactive) | > 100 µM (inactive) | > 100 µM (inactive) | – | > 100 µM (inactive) | > 100 µM (inactive) | > 100 µM (inactive) | > 100 µM | > 100 µM (inactive) | > 100 µM (inactive) | > 100 µM (inactive) | > 100 µM (inactive) | > 100 µM (inactive) | > 100 µM (inactive) |
| Cc1ccc(C2(O)c3ccccc3C(=O)N(C)C2(O)c2ccc(C)cc2)cc1 (centres undefined) | 38.1 µM (inactive) | – | 32.3 µM (inactive) | 18.2 µM (inactive) | 15.4 µM (inactive) | 49.2 µM (inactive) | > 100 µM (inactive) | 25.5 µM (inactive) | 22.6 µM (inactive) | 37 µM (inactive) | 62.7 µM (inactive) | > 100 µM (inactive) | 16.1 µM (inactive) | 52 µM | > 100 µM (inactive) | > 100 µM (inactive) | > 100 µM (inactive) | > 100 µM (inactive) | 58.3 µM (inactive) | 12.8 µM (inactive) |
